Reference: patent US7642245B2, “Antibacterial compounds having a (pyrrole carboxamide)-(benzamide)-(imidazole carboxamide) motif” (Oscient Pharmaceuticals Corporation, priority 2002, dated 2010)

How the values were obtained:
[1] = system: S. aureus ATCC 13709; experiment: MIC, NCCLS broth microdilution; type: cell-based, Staphylococcus aureus; details: A = S. aureus ATCC 13709 (MSSA)
How it was run: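 Compounds were serially diluted in broth and tested against each strain according to NCCLS guidelines, with MIC taken as the endpoint. C. albicans was assayed per the Manual of Clinical Microbiology.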

[2] = system: S. aureus ATCC 27660; experiment: MIC, NCCLS broth microdilution; type: cell-based, Staphylococcus aureus; details: B = S. aureus ATCC 27660 (MRSA)
How it was run: (§1)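 Broth microdilution, NCCLS M7-A4/M11-A4/M27-T guidelines; read-out MIC. MRSA strain for S. aureus. Candida: Manual of Clinical Microbiology method.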

[3] = system: E. faecalis ATCC 29212; experiment: MIC, NCCLS broth microdilution; type: cell-based, Enterococcus faecalis; details: C = E. faecalis ATCC 29212
How it was run: as §1

[4] = system: B. cereus ATCC 11778; experiment: MIC, NCCLS broth microdilution; type: cell-based, Bacillus cereus; details: D = B. cereus ATCC 11778
How it was run: as §1

[5] = system: S. pneumoniae ATCC 49619; experiment: MIC, NCCLS broth microdilution; type: cell-based, Streptococcus pneumoniae; details: E = S. pneumoniae ATCC 49619
How it was run: as §1

[6] = system: C. albicans ATCC 38247; experiment: MIC, antifungal assay; type: cell-based, Candida albicans; details: F = C. albicans ATCC 38247
How it was run: as §1

[7] = system: E. coli ATCC 25922; experiment: MIC, NCCLS broth microdilution; type: cell-based, Escherichia coli; details: G = E. coli ATCC 25922
How it was run: as §1

[8] = system: M. catarrhalis (ATCC 25238); experiment: MIC, NCCLS broth microdilution; type: cell-based, Moraxella (now Branhamella) catarrhalis; details: H = M. catarrhalis (ATCC 25238)
How it was run: as §1

Measured: Minimum Inhibitory Concentration (MIC)

Cn1cc(NC(=O)c2cc3c([N+](=O)[O-])cccc3cn2)cc1C(=O)Nc1ccc(C(=O)Nc2cn(C)c(C(=O)NCCN3CCC(O)CC3)n2)cc1 [Compound A-7]
>32 µg/mL: [6] | [7]
+ (12 ≦ MIC ≦ 32 μg/mL): [8]
+++ (MIC ≦ 4 μg/mL): all other assays above

Cn1cc(NC(=O)c2cc3ccccc3cn2)cc1C(=O)Nc1ccc(C(=O)Nc2cn(C)c(C(=O)NCCN3CCCCC3)n2)cc1 [Compound A-17]
+ (12 ≦ MIC ≦ 32 μg/mL): [6]
+++ (MIC ≦ 4 μg/mL): all other assays above

Cn1cc(NC(=O)c2cc3ccccc3cn2)cc1C(=O)Nc1ccc(C(=O)Nc2cn(C)c(C(=O)NCCNCC3CC3)n2)cc1 [Compound A-34]
>32 µg/mL: [6]
+++ (MIC ≦ 4 μg/mL): all other assays above

Cn1cc(NC(=O)c2cc3ccccc3cn2)cc1C(=O)Nc1ccc(C(=O)Nc2cn(C)c(C(=O)NCCN3CCCC(O)C3)n2)cc1 (centres unmarked) [Compound A-72]
>32 µg/mL: [6] | [7]
+++ (MIC ≦ 4 μg/mL): all other assays above

Cn1cc(NC(=O)c2cc3ccccc3cn2)cc1C(=O)Nc1ccc(C(=O)Nc2cn(C)c(C(=O)NCCNC(CO)(CO)CO)n2)cc1 [Compound A-49]
+++ (MIC ≦ 4 μg/mL): [1] | [2] | [5]
+ (12 ≦ MIC ≦ 32 μg/mL): [3]
>32 µg/mL: all other assays above

COCCN(CCNC(=O)c1nc(NC(=O)c2ccc(NC(=O)c3cc(NC(=O)c4cc5ccccc5cn4)cn3C)cc2)cn1C)CCOC [Compound A-22]
>32 µg/mL: [6] | [7]
+++ (MIC ≦ 4 μg/mL): all other assays above

Cn1cc(NC(=O)c2cc3ccccc3cn2)cc1C(=O)Nc1ccc(C(=O)Nc2cn(C)c(C(=O)NCCN3CCSCC3)n2)cc1 [Compound A-18]
>32 µg/mL: [6] | [7]
+++ (MIC ≦ 4 μg/mL): all other assays above
